Reference: PubChem BioAssay (NCI)
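Protocol summary: plate cells (96-well), add compound at 5 concentrations, incubate 48 h, interpolate endpoints linearly. Abbreviation: GI50, concentration required for 50% inhibition of growth. Definition used: TGI = concentration required for complete inhibition of growth.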

Tests used:
Assay in all cases: DTP human tumour cell line panel, 48 h
[1] = test system: T-47D breast
[2] = test system: HCC-2998 colon
[3] = test system: KM12 colon
[4] = test system: MCF7 breast
[5] = test system: OVCAR-3 ovarian
[6] = test system: SNB-19 CNS
[7] = test system: MDA-MB-231 breast
[8] = test system: SN12C renal
[9] = test system: HS 578T breast
[10] = test system: SR leukemia

SMILES	TGI [1]	TGI [2]	TGI [3]	TGI [4]	TGI [5]	TGI [6]	TGI [7]	TGI [8]	TGI [9]	TGI [10]	GI50 [1]	GI50 [2]	GI50 [3]	GI50 [10]	GI50 [4]	GI50 [5]	GI50 [6]	GI50 [7]	GI50 [8]	GI50 [9]
C=CCNC(=S)/N=C/C(C(=O)Nc1ccccc1C)=C(\C)O	> 100 µM	> 100 µM	> 100 µM	> 100 µM	> 100 µM	> 100 µM	> 100 µM	> 100 µM	> 100 µM	–	–	–	–	–	–	–	–	–	–	–
CN1CCC2(CC1)C(=NC1CCCCC1)NC(=O)N2c1ccccc1	> 100 µM	> 100 µM	> 100 µM	> 100 µM	–	> 100 µM	> 100 µM	> 100 µM	> 100 µM	> 100 µM	–	–	–	–	–	–	–	–	–	–
CC1(C)CC(=O)C2=C(C1)OC1(CC2c2ccc(Cl)cc2)CC(c2ccc(Cl)cc2)C2=C(CC(C)(C)CC2=O)O1 (centres undefined)	–	38.5 µM	40.6 µM	> 100 µM	23.5 µM	54.6 µM	50.3 µM	> 84.2 µM	36.1 µM	87.2 µM	–	–	–	–	–	–	–	–	–	–
CCOC(=O)C(C(=O)COC(C)(C)C)[C@@H]1C=C[C@H](OC(C)=O)C1 (some centres undefined)	> 100 µM	> 100 µM	> 100 µM	> 100 µM	> 100 µM	> 100 µM	> 100 µM	> 100 µM	> 100 µM	–	–	–	–	–	–	–	–	–	–	–
CN(C)CCNC(=O)c1c(O)ccc2c1c1c(n2CCc2ccccc2)C(=O)c2ccccc2C1=O	8.5 µM	2.96 µM	15.9 µM	12.1 µM	28.1 µM	23.8 µM	15 µM	20 µM	27.1 µM	7.11 µM	–	–	–	–	–	–	–	–	–	–
CC(C)C(NC(=O)C(Cc1ccccc1)NC(=O)[C@H]1CCC[C@H]1NC(=O)C(Cc1ccc(OC(C)(C)C)cc1)NC(=O)OC(C)(C)C)C(N)=O (some centres undefined)	46.9 µM	30.5 µM	41.8 µM	35.9 µM	69.3 µM	–	49.5 µM	35.2 µM	–	> 100 µM	–	–	–	–	–	–	–	–	–	–
O=C1C=C(N2CCN(CCOCCO)CC2)C(=O)c2c(O)ccc(O)c21	18.4 µM	6.95 µM	26.5 µM	2.98 µM	5.35 µM	33.7 µM	21.8 µM	14.8 µM	45.3 µM	–	–	–	–	–	–	–	–	–	–	–
COc1ccc(-n2cnc3c(NC(Cc4ccccc4)C(=O)O)ncnc32)cc1 (centres undefined)	> 100 µM	> 100 µM	> 100 µM	> 100 µM	> 100 µM	–	> 100 µM	> 100 µM	> 100 µM	> 100 µM	–	–	–	–	–	–	–	–	–	–
C=CC[C@H](N=C(SC)SC)C(=O)N1C(=O)N(C)[C@@H](C)[C@H]1c1ccccc1	> 100 µM	92.2 µM	> 100 µM	> 100 µM	> 100 µM	> 100 µM	> 100 µM	> 100 µM	> 100 µM	–	–	–	–	–	–	–	–	–	–	–
Cc1cc2ccc(N)nc2[nH]c1=O	> 100 µM	–	> 100 µM	> 100 µM	–	> 100 µM	> 100 µM	> 100 µM	> 100 µM	> 100 µM	–	–	–	–	–	–	–	–	–	–
COc1ccc(-c2n/c(=C\c3c(O)[nH]c4ccccc34)cc3c2=Nc2ccccc2-3)cc1	9.43 µM	3.07 µM	2.18 µM	2.75 µM	2.28 µM	3.79 µM	2.52 µM	5.3 µM	5.75 µM	3.15 µM	2.22 µM	1.52 µM	0.695 µM	0.518 µM	1.28 µM	1.01 µM	1.63 µM	1.13 µM	2.03 µM	1.85 µM
